Earlier results in patent US12349704B2, “High quality cultured meat, compositions and methods for producing same” (ALEPH FARMS LTD., priority 2018, dated 2025).
Values belong to the molecule of their own block, whether it stands above or below them.

Assays:
[1] = not given; remark: listed apart in the source
[2] = dietary or formulated lycopene

SMILES: NCC(=O)[O-].NCC(=O)[O-].[Fe+2] [Ferrous bisglycinate]
tolerability of dietary iron supplementation (approximately 15 to 120 mg iron/day, iron-deficient young children, adult males, pregnant and non-pregnant females): well tolerated | adverse effects in field trials of iron fortification of foods (between 2 and 23 mg/day of supplemental dietary iron): without any reports of adverse effects

daily intake that may lead to hypercarotenemia (yellowish coloration of the skin, harmless and reversible) [1]: > 30 mg
SMILES: CC1=C(/C=C/C(C)=C/C=C/C(C)=C/C=C/C=C(C)/C=C/C=C(C)/C=C/C2=C(C)CCCC2(C)C)C(C)(C)CCC1 [beta-carotene]

SMILES: CC(C)=CCC/C(C)=C/C=C/C(C)=C/C=C/C(C)=C/C=C/C=C(C)/C=C/C=C(C)/C=C/C=C(\C)CCC=C(C)C [lycopene]
intake levels at which no adverse effects were observed [2]: up to 3 g/(kg*d)
